Laboratory results as given in patent US3950374A, “Carbamate pesticide” (priority 1972, dated 1976).
≈ marks a conversion by molar mass, not a printed value. Where two headings read alike, the source gives them in different places.

Assays:
Type in all cases: in vivo
[1] = system: smaller brown planthoppers (Lacdelphax striatellus); assay: Lethal effect on smaller brown planthoppers (Test Example 1)
Method: Lethal effect on smaller brown planthoppers (Lacdelphax striatellus)
Rice plants (15 to 20 cm tall) 15 days after germination, are dipped for 1 minute into each aqueous dilute solution of the present compounds in the form of emulsifiable concentrates, and placed in large glass tubes separately after air-drying. Thereafter, 20 to 30 adult planthoppers are released therein and covered with a wire net. After 24 hours, the number of dead and live planthoppers are observed to calculate LC50. The number of the compounds in Table 1 correspond to those of the compounds mentioned above.

[2] = system: smaller brown planthoppers (Loadelphax striatellus); assay: Residual effect on smaller brown planthoppers (Test Example 11); settings: 1000 fold dilute solution of 50 % emulsifiable concentrate; for Mortality after 4 days: after 4 days (residual effect); for Mortality after 7 days: after 7 days (residual effect)
Method: Residual effect on smaller brown planthoppers (Loadelphax striatellus).
From 18 to 23 rice plants are grown into a 3 - 4 leaves stage in each flower pot of 10 cm. in diameter, then a 1000 fold aqueos dilute solution of each 50 % emulsifiable concentrate of the present componds is applied thereto. After air-drying, each pot is covered with a wire cage, and 20 - 30 adult planthoppers are released therein, and after 24 hours the mortality rate is calculated. Furthermore, the planthoppers are released each day to investigate the residual effect of the present compounds.

[3] = system: green peach aphids (Myzus persicae); assay: Effect on green peach aphids in soil treatment (Test Example 3); settings: 5 % granules, 6 kg./10 ares soil treatment; after 3 days; chinese cabbages
Description: Effect on green peach aphids (Myzus persicae) in soil treatment.
Many of the aphids are made parasitic on chinese cabbages grown in a pot one month after sowing, and each of 5 % granules of the present compounds is applied in a ratio of 6 kg./10 ares near the root thereof. After 3 days, the number of dead and live aphids are observed to calculate the mortality rate.

[4] = system: rice stem borer (Chilo suppressalis); assay: Lethal effect on rice stem borer (Test Example 5); settings: 1000 fold dilute solution of 50 % emulsifiable concentrate; 4 days after application
Description: Lethal effect on rice stem borer (Chilo suppressalis).
Eggs just before hatching of the rice stem borer are applied in a ratio of 100/pot near the root of rice plants grown into the tillering stage in a 1/100,000 Wagner's pot. After the eggs hatched and the larvae enter into stems of rice plants, a 1000 fold dilute solution of each 50 % emulsifiable concentrate of the present compounds is applied by means of a turn table. The number of dead and live stem borers are observed to calculate the mortality rate 4 days after application.

nematode = assay: Effect on nematode (Test Example 6); settings: 500 ppm active ingredient; after 24 hours
Method: 0.5 ml. of a nematode-containing aqueous solution separated from food is placed in a test tube with ground stopper containing 0.5 ml. of an aqueous dilute solution of each emulsifiable concentrate of the present compounds. The concentration of the active ingredient in the mixture is adjusted to 500 ppm. After 24 hours, the number of dead and live nematodes are observed microscopically to calculate the mortality rate.

[5] = system: tobacco cut worm (Spodoptera litura); assay: Effect on tobacco cut worm (Test Example 7); settings: 1000 fold dilute solution of emulsifiable concentrate, fourth instar larvae
Method: Effect on tobacco cut worm (Spodoptera litura).
A 1000 fold dilute solution of each emulsifiable concentrate of the present compounds is applied by means of a turn table to a potted chinese cabbage 60 days after sowing. After air-drying, fourth instar larvae of the tobacco cut worm are released and the mortality rate after 24 hours and 48 hours is calculated.

[6] = system: green rice leafhoppers (Nephotettix cincpiceps); assay: Effect on green rice leafhoppers in soil treatment (Test Example 4); settings: 6 % granules, 6 kg./10 ares soil treatment; released after 3 days, observed after 24 hours
Method: Effect on green rice leafhoppers (Nephotettix cincpiceps) in soil treatment.
(§1) Each of 6 % granules of the present compounds is applied in a ratio of 6 kg./10 ares near the root of rice plants grown into the tillering stage in a 1/100,000 Wagner's pot. After 3 days, 30 adult leafhoppers are released and covered with a wire cage. After 24 hours, the number of dead and live leafhoppers are observed to calculate the mortality rate.

[7] = system: larvae of northern house mosquito (Culex pipien pallens); assay: Effect on mosquito larvae (Test Example 8)
Method: Effect on mosquito larvae.
200 ml. of an aqueous solution of each emulsifiable concentrate of the present compounds which is adjusted to the concentration of 1 ppm with pure water are placed in a 300 ml. beaker and 30 larvae of northern house mosquito (Culex pipien pallens) are released therein. the mortality rate is calculated.

[8] = system: smaller brown planthoppers (Laodelphax striatellus); assay: Effect on smaller brown planthoppers in soil treatment (Test Example 2); settings: 6 % granules, 6 kg./10 ares soil treatment; released after 3 days, observed after 24 hours
Method: Effect on smaller brown planthoppers (Laodelphax striatellus) in soil treatment.
as §1, with “stage” for “stage in”, “planthoppers” for “leafhoppers”

[9] = system: carmine mite (Tetranychus telarius); assay: Acaricidal activity on carmine mite (Test Example 10); settings: 1000 fold dilute solution of 40 % wettable powder, 10 ml./pot, after 10 days
Method: Acaricidal activity on carmine mite (Tetranychus telarius).
From 10 to 15 female carmine mites are made parasitic, in a ratio of 10 - 15/leaf, on leaves of potted kidney beans is (a leaves stage), 9 days after sowing, and kept at 27°C. For a week in a constant temperature room, then breeding of numerous carmine mites at various growth stages can be observed. At this time, a 1000 fold aqueous dilute solution of each 40 % wettable powder of the present compounds is sprayed by means of a turn table in a ratio of 10 ml./pot. After 10 days, the degree of damage of kidney beans and the degree of breeding of mites are observed and classified into five grades (-, +, […] , +++, ++++ ).
The degree of damage of kidney bean leaves:
-; damage is hardly observed, […]
and the degree of damage in between the two extremes is classified into three grades.
The degree of breeding of carmine mites: -; the number alive is less than 10, ++++; the alive are numerous, and the degree of breeding in between the two extremes is classified into three grades.

Compound	LC50 ([1]; 24 h)	Mortality after 1 day [2]	Mortality after 4 days [2]	Mortality after 7 days [2]	Mortality (nematode)	Mortality [6]	further results
Cc1ccc(OC(=O)N(C)[S+]([O-])c2ccccc2)c(C)c1 (stereo not drawn) [Compound 4]	33 µg/mL (≈ 109 µM)	100%	83.3%	53.3%			
CCC[S+]([O-])N(C)C(=O)ON=C(C)SC (stereo not drawn) [Compound 13]					100%		Mortality [3]: 96.7%; Mortality [4]: 83.2%; Mortality After 24 hrs. [5]: 100%; Mortality After 48 hrs. [5]: 100%
Cc1ccc([S+]([O-])N(C)C(=O)Oc2cccc(C)c2C)cc1 (stereo not drawn) [Compound 9]	29 µg/mL (≈ 91.4 µM)	100%	62.3%	30.0%		83.3%	mortality at 1 ppm [7]: 66.7%
Cc1ccc(OC(=O)N(C)[S+]([O-])c2ccccc2)cc1C (stereo not drawn) [Compound 6]	25 µg/mL (≈ 82.4 µM)	90.0%	63.3%	50.0%	100%		mortality at 1 ppm [7]: 70%
Cc1cc(C)cc(OC(=O)N(C)[S+]([O-])c2ccccc2)c1 (stereo not drawn) [Compound 5]	18 µg/mL (≈ 59.3 µM)	100%	100%	45.0%		68.0%	
CN(C(=O)Oc1ccc(Cl)cc1)[S+]([O-])c1ccccc1 (stereo not drawn) [Compound 2]	20 µg/mL (≈ 64.6 µM)	96.7%	75.0%	20.0%	79.8%	75.0%	
CCC(=NOC(=O)N(C)[S+]([O-])c1ccccc1)SC (stereo not drawn) [Compound 19]							Mortality [4]: 66.7%
Cc1cccc(OC(=O)N(C)[S+]([O-])c2ccccc2)c1 (stereo not drawn) [Compound 7]	43 µg/mL (≈ 149 µM)	86.7%	65.0%	46.7%		96.7%	
Cc1cccc(OC(=O)N(C)[S+]([O-])c2ccccc2)c1C (stereo not drawn) [Compound 3]	70 µg/mL (≈ 231 µM)	100%	64.0%	50.0%			
CCCCCCCCCCCC[S+]([O-])N(C)C(=O)ON=C(C)SC (stereo not drawn) [Compound 14]					100%		Mortality [8]: 90.0%; Mortality [3]: 76.5%; Mortality After 24 hrs. [5]: 90%; Mortality After 48 hrs. [5]: 100%
Cc1ccc(OC(=O)N(C)[S+]([O-])c2ccc(Cl)cc2)cc1C (stereo not drawn) [Compound 11]	40 µg/mL (≈ 118 µM)	100%	85.0%	75.0%	75.0%		mortality at 1 ppm [7]: 100%
CSC(C)=NOC(=O)N(C)[S+]([O-])c1ccccc1 (stereo not drawn) [Compound 15]					100%	70.0%	LC50 ([1]; rice plants dipped 1 minute in dilute emulsifiable concentrate, after 24 hours, read-out: LC50): 123 µg/mL (≈ 430 µM); Mortality [3]: 95.9%; Mortality [4]: 82.3%; mortality at 1 ppm ([7]; 1 ppm aqueous solution of emulsifiable concentrate, 30 larvae, time not stated, read-out: Mortality): 78.3%; Degree of breeding ([9]; carmine mites): - (the number alive is less than 10); Degree of damage ([9]; kidney bean leaves): -~+
Cc1ccc(OC(=O)N(C)[S+]([O-])c2ccc([N+](=O)[O-])cc2)cc1C (stereo not drawn) [Compound 10]	33 µg/mL (≈ 94.7 µM)	100%	50.0%	23.3%		72.2%	
Cc1ccc([S+]([O-])N(C)C(=O)Oc2ccc(C)c(C)c2)cc1 (stereo not drawn) [Compound 8]	50 µg/mL (≈ 158 µM)	85.0%	50.0%	42.0%			mortality at 1 ppm [7]: 100%
CCCSC(C)=NOC(=O)N(C)[S+]([O-])c1ccc(Cl)cc1 (stereo not drawn) [Compound 21]					65.0%		
CNC(=O)Oc1ccc(C)c(C)c1 [Meobal, 3,4-dimethylphenyl-N-methylcarbamate, reference compound]		100%	53.2%	10.0%			
